Results published in US9254296B2, “Pharmaceutical composition comprising vitamin D analogue and cosolvent-surfactant mixture” (LEO PHARMA A/S, priority 2009, dated 2016).

Assays:
[1] = test system: IL-1α; test: Release of IL-1α from calcipotriol ointment containing glycerol; settings: 5%, 10%, 15% by weight of glycerol in a calcipotriol ointment
[2] = test system: gene encoding cathelicidin; test: Cathelicidin target gene activation assay on reconstructed human epidermis; type: cell-based; settings: 5%, 10% or 15% by weight of glycerol in the composition
Text: In psoriasis, the level of cathelicidin is increased in lesional skin of psoriasis patients. […] This finding has been utilized to develop an assay in which the uptake and biological activity of calcipotriol in human keratinocytes from the tested compositions has been determined by measuring the level of induction of the gene encoding cathelicidin.
In the assay, compositions A, B, C, F, G, I, J, K, L prepared as described in Example 1 above were applied topically in triplicate on reconstructed human epidermis consisting of normal human keratinocytes cultured for 12 days on 0.5 cm^2 polycarbonate filters (available from SkinEthic® Laboratories, Nice, France) in an amount of 10 μl. The tissue was treated for two days followed by separation of the epidermis from the polycarbonate filter and snap-frozen in liquid nitrogen. RNA was extracted from the cells and cDNA synthesized by conventional procedures. Quantitative real-time PCR (qPCR) was then performed using the following assays from Applied Biosystems: CAMP Hs0018038_ml and GAPDH Hs99999905_ml. The expression levels of cathelicidin were normalized to GAPDH and a relative quantification was made by comparison with Daivonex® ointment.

[3] = one study, M. Hannuksela et al. 1975; cited from earlier work

## OCC(O)CO [glycerol]
[1]
  release of IL-1α: reduce the release of IL-1α in a dose-dependent manner
[2]
  effect on biological activity of calcipotriol (expression of cathelicidin): potentiating the biological activity of calcipotriol

## CC(O)CO (stereo not drawn) [propylene glycol]
[3]
  number of irritant reactions: 12.5%
